Source: PMC11062507
Each block holds one molecule with its values, some of them ahead of it.

Tests used:
[1] = tested on: CArah1-1 (DNA, aptamer, circular (5' and 3' ends ligated)) ATCCGATCGAGAGGATCCGGAAACATGCGAATTAATGAGGCCCCAAGATAGCTAAGAGAT; assay: MMC-GO-based binding assay, SYBR Gold fluorescence; details: 1x binding buffer (composition not stated); specificity test, concentration not given
[2] = molecular target: T1, Ara h1 (peanut allergen) (peanut, UniProt P43238 85-626); assay: MMC-GO-based fluorescence binding assay; 1x binding buffer (composition not in material); aptamer heated 95 C 5 min, ice 15 min, incubated 60 min with target, then MMC-GO 20 min; MST at 25 C; details: protein: native; tags: RED-NHS dye label in MST; label: SYBR Gold staining in MMC-GO assay; circular ssDNA
T1 sequence: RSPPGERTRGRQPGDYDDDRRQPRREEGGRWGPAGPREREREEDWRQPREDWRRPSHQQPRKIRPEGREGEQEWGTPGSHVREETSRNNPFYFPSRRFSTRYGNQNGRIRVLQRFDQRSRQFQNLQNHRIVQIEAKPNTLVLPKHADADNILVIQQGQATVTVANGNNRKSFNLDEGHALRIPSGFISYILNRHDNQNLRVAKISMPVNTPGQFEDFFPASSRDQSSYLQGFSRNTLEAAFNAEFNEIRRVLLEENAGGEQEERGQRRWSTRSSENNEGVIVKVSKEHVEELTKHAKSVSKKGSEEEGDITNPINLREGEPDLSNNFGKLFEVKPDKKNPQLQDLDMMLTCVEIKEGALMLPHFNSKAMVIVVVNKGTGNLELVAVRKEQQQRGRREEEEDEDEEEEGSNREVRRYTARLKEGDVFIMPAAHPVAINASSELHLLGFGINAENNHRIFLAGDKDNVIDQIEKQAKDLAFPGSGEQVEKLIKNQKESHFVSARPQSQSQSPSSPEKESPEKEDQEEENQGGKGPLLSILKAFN

[3] = molecular target: T1, Ara h1 (peanut allergen); assay: MST; labeled Ara h1 fixed, aptamer titrated, 25 C; 1x binding buffer (composition not in material); aptamer heated 95 C 5 min, ice 15 min, incubated 60 min with target, then MMC-GO 20 min; MST at 25 C; details: protein: native; tags: RED-NHS dye label in MST; label: SYBR Gold staining in MMC-GO assay; circular ssDNA
[4] = molecular target: T1, Ara h1 (peanut allergen); assay: MMC-GO-based fluorescence binding assay; Kd only in figure; 1x binding buffer (composition not in material); aptamer heated 95 C 5 min, ice 15 min, incubated 60 min with target, then MMC-GO 20 min; MST at 25 C; details: protein: native; tags: RED-NHS dye label in MST; label: SYBR Gold staining; circular ssDNA

Molecule: N[C@@H](Cc1ccccc1)C(=O)O
- binding [1]: no

Molecule: OC[C@H]1OC(O)[C@H](O)[C@@H](O)[C@@H]1O (stereo partly shown)
- binding [1]: no

B1: CArah1-1 (structured_DNA)
DNA: ATCCGATCGAGAGGATCCGGAAACATGCGAATTAATGAGGCCCCAAGATAGCTAAGAGAT
modifications: circular (5' and 3' ends ligated)
- Kd [2]: 981 nM
- Kd [3]: 201 nM

B2: CArah1-4 (structured_DNA)
DNA: ATCCGATCGATCAACAAACTTCGTGGCTCACCCAGACATTCACTCATGCGGCTAAGAGAT
modifications: circular (5' and 3' ends ligated)
- binding result [4]: binds

B3: CArah1-3 (structured_DNA)
DNA: ATCCGATCGATTCTACGGTTTTTCGCTAACGTTCACTGCACTGTATCTGGGCTAAGAGAT
modifications: circular (5' and 3' ends ligated)
- binding result [4]: binds

More lines, now with the values ahead:

- binding [1]: no
Molecule: Cc1cc2nc3c(=O)[nH]c(=O)nc-3n(C[C@H](O)[C@H](O)[C@H](O)CO)c2cc1C

- binding [1]: no
Molecule: N[C@@H](Cc1c[nH]c2ccccc12)C(=O)O

- binding [1]: no
Molecule: Nc1ncnc2c1ncn2[C@@H]1O[C@H](COP(=O)(O)OP(=O)(O)OP(=O)(O)O)[C@@H](O)[C@H]1O

- binding [1]: no
Molecule: O=C1O[C@H]([C@@H](O)CO)C(O)=C1O
